Data published in US20160122406A1, “ANALOGS OF PITUITARY ADENYLATE CYCLASE-ACTIVATING POLYPEPTIDE (PACAP) AND METHODS FOR THEIR USE” (THE ADMINISTRATORS OF THE TULANE EDUCATIONAL FUND, priority 2013, published 2016).
“Also recorded” adds a separate entry of the source. Read-outs that look alike come from different tables or passages of the source.

Tests used:
[1] = test system: Male C57BL/6 mice; test: Cisplatin-induced nephrotoxicity in mice; assay type: in vivo
Method: (§1) Male C57BL/6 mice were given a single intraperitoneal injection of 20 mg/kg of cisplatin. Twenty micrograms of PACAP38 were given intraperitoneally 1 hour before the injection of cisplatin and additional doses were given at 24 and 48 hours after the initial dose. The control group of mice was injected intraperitoneally with the same volume of saline as for the injections of cisplatin and PACAP38 on the same schedule. The mice were euthanized 24 hours after the final injection of PACAP38. The serum creatinine levels were determined at sacrifice with isotope dilution liquid chromatography mass spectroscopy/mass spectroscopy. Each value represents the mean plus/minus the standard error of eight determinations. ** p<0.01 compared to the group treated only with cisplatin.
as §1, with “cystatin C” for “creatinine”, “commercial ELISA kits.” for “isotope dilution liquid chromatography mass spectroscopy/mass spectroscopy.”
as §1, with “body weights of the mice” for “serum creatinine levels”, “determined 1-2 hours before the first injection of PACAP38 and” for “determined”, “sacrifice.” for “sacrifice with isotope dilution liquid chromatography mass spectroscopy/mass spectroscopy.”, “p<0.01 and * p<0.05” for “p<0.01”
as §1, with “kidney” for “serum creatinine”, “levels of TNF-α” for “levels”, “commercial ELISA kits.” for “isotope dilution liquid chromatography mass spectroscopy/mass spectroscopy.”
as §1, with “kidney” for “serum creatinine”, “levels of IFN-γ” for “levels”, “commercial ELISA kits.” for “isotope dilution liquid chromatography mass spectroscopy/mass spectroscopy.”, “p<0.01 and * p<0.05” for “p<0.01”
Male C57BL/6 mice were given a single intraperitoneal injection of 20 mg/kg of cisplatin. Twenty micrograms of PACAP38 were given intraperitoneally 1 hour before the injection of cisplatin and additional doses were given at 24 and 48 hours after the initial dose. […]

[2] = test system: rat; conditions: 48 hours after start, cited from earlier work
[3] = rat, in vivo, iv; cited from earlier work
[4] = cisplatin 20 mg/kg i.p., 20 micrograms peptide i.p. 1 h before and 24 and 48 h after, ELISA at sacrifice

| Substance | cytoprotection against cisplatin-induced nephrotoxicity / kidney injury ([1]; PACAP38 compared with [Iac1]PACAP38) | cisplatin-induced increase in kidney levels of interferon γ (IFN-γ) [1, 4] | cisplatin-induced increase in kidney levels of monocyte chemotactic protein 1 (MCP-1, CCL2) [1, 4] | cisplatin-induced increase in kidney levels of tumor necrosis factor-α (TNF-α) [1, 4] | cisplatin-induced increase in serum cystatin C levels [1, 4] | cisplatin-induced body weight loss ([1]; cisplatin 20 mg/kg i.p., 20 micrograms peptide i.p. 1 h before and 24 and 48 h after, at sacrifice) | cisplatin-induced increase in serum creatinine levels ([1]; cisplatin 20 mg/kg i.p., 20 micrograms peptide i.p. 1 h before and 24 and 48 h after, at sacrifice 24 h after final injection) | kidney function of cisplatin-injected mice ([1]; summary of FIGS. 3 and 4) | inflammatory response in the kidney of cisplatin-injected mice ([1]; summary of FIGS. 6-8 (TNF-α, IFN-γ, MCP-1)) | reduction of the infarct volume ([2]; continuous i.v. infusion beginning 4 hours after start of 2-h MCAO) | reduction of the infarct volume ([2]; continuous i.v. infusion beginning 8 hours after start of 2-h MCAO) | reduction of the infarct volume ([2]; continuous i.v. infusion beginning 12 hours after start of 2-h MCAO) | half-life in the bloodstream [3] |
| --- | --- | --- | --- | --- | --- | --- | --- | --- | --- | --- | --- | --- | --- |
| PACAP38: native human pituitary adenylate cyclase-activating polypeptide, α-amidated peptide with 38 amino acids | approximately equipotent; also recorded: potent cytoprotectants | reduction | reduction | reduction | reduction | reduction; also recorded: significantly reversed the weight lost | reduction | significantly restored kidney function | significantly blunted the inflammatory response | approximately 51% | ~22% | ~12% | – |
| [^125I]-PACAP38: 125I-radiolabelled PACAP38 used for half-life in rats | – | – | – | – | – | – | – | – | – | – | – | – | 5 to 6 min |
